From publication PMC4594923, “Food Polyphenols Fail to Cause a Biologically Relevant Reduction of COX-2 Activity” (PLoS ONE, 2015)
Entries after “also recorded” stand apart in the source; their conditions may differ. Marks after values point to notes of the source that are not given here.

Legend:
ovine recombinant COX–1 [1] = target: T1, ovine recombinant COX–1 (Ovis aries, UniProt P05979); settings: based on PGE2 formation, n=3, same assay conditions; cited from earlier work
T1 sequence (P05979 25-600): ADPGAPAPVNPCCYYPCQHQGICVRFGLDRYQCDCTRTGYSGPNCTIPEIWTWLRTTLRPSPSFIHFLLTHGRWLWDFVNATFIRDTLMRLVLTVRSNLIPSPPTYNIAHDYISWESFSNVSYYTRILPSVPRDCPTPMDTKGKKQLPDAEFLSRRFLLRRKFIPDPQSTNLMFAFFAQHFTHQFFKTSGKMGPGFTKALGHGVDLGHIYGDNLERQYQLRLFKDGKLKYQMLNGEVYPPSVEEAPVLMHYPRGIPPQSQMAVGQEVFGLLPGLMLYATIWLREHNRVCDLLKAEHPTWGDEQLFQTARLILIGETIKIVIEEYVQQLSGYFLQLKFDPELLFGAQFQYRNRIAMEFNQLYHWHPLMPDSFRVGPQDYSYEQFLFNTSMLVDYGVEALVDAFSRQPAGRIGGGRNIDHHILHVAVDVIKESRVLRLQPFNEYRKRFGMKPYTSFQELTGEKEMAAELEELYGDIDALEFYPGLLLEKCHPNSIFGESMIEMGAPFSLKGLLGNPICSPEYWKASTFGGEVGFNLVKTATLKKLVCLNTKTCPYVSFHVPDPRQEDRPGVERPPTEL

COX–2 protein [2] = settings: Western Blot, same assay conditions; cited from earlier work
COX–2 protein [3] = settings: Western Blot, same assay conditions; cited from earlier work; remark: listed apart in the source
[4] = tested on: arachidonic acid (AA) cascade; assay: plasma oxylipin/PG levels in LPS induced sepsis in mice;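 on all read-outs here: male C57BL/6N mice given LPS, plasma oxylipins quantified by LC-MS after solid-phase extraction, pretreatment or vehicle given intraperitoneally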; format: in vivo, C57BL/6N mice; settings: mice, 24 h after LPS, vs. LPS group; for plasma PGE2 level: compound i. p. 100 mg/kg bw 2 h before LPS (10 mg/kg bw i. p.)
Description: Twelve week old male C57BL/6N mice (Charles River, Sulzfeld, Germany) were used for all experiments. C57BL/6 male mice (H2^b, 11–13 weeks of age) were obtained from Charles River (Sulzfeld, Germany). Animals were cared for in accordance with the institution’s guidelines for experimental animals and with the guidelines of the American Physiological Society. […] Mice were monitored closely and if they appeared compromised (i.e. inactivity, no intake of food or water) after compound or LPS injection the experiment was terminated.
Oxylipin levels were analyzed in plasma and tissues by LC-MS following SPE extraction of 200 μl plasma or tissue homogenate (50 mg) on Chromabond C18 ec cartridges (Machery-Nagel, Düren, Germany) [19].
(§1) GraphPad Prism 5.0 (GraphPad Software, San Diego, USA) was used for data analysis, the fitting of dose response curves and calculation of the IC50 values. Statistical differences were determined by Dunnetts test (LPS vs. other groups).

[5] = tested on: arachidonic acid (AA) cascade; assay: kidney tissue oxylipin/PG levels in LPS induced sepsis in mice;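 further: male C57BL/6N mice challenged with LPS, kidney taken 24 h later, oxylipins quantified by LC-MS after solid-phase extraction of tissue homogenate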
COX–2 = settings: different murine colitis models; cited from earlier work
ovine recombinant COX–1 [6] = target: T1, ovine recombinant COX–1; assay: cell-free COX–1 enzyme assay (PGE2 formation, LC-MS); format: biochemical; design: purchased Cayman Chemicals/ Biomol, Hamburg, Germany
Protocol: The in vitro assays were performed as described [6, 16, 18] and COX metabolites were quantified by LC-MS [18].
Primary human monocytes were freshly isolated from human blood. Blood was collected from healthy human subjects after written informed consent was obtained. […] After 24 h, the supernatant was sampled for LC-MS and cells were collected for the COX–2 expression analysis by Western Blotting.
as §1

[7] = kidney tissue 24 h after LPS treatment, LPS +, mean
[8] = kidney tissue 24 h after LPS treatment, LPS +, mean, < = below LOQ
[9] = mice, compound i. p. 100 mg/kg bw 2 h before LPS, 24 h after LPS, vs. LPS group

## C[C@@H]1C[C@H]2[C@@H]3CCC4=CC(=O)C=C[C@]4(C)[C@@]3(F)[C@@H](O)C[C@]2(C)[C@@]1(O)C(=O)CO [dexamethasone]
Ovine recombinant COX–1 [1]
  IC50 (95% CI), cell-free – COX-1: no effect (up to 100 µM)
COX–2 protein [2]
  COX-2 Expression, primary monocytes: 1 µM - 3 nM: COX-2 ↓
COX–2 protein [3]
  COX-2 Expression, HCA-7: no effect (up to 100 µM)

## Oc1ccc(/C=C/c2cc(O)cc(O)c2)cc1 [Resveratrol, resveratrol]
[4]
  plasma PGE2 level: increased
[4]; listed as resveratrol
  plasma PGE2 level: elevated
[4]; compound i. p. 100 mg/kg bw 2 h before LPS
  sum of linoleic acid (LA) derived epoxy-metabolites in plasma: decrease
[5]; [7]
  1a,1b-dihomo-PGF2α: 3.9^‡ nM
  4,5-DiHDPE: 15 nM
  4-HDHA: 16 nM
  5(6)-EpETrE: 66 nM
  5,6-DiHETrE: 1.5 nM
  5-HEPE: 1.1 nM
  5-HETE: 12 nM
  5-oxo-ETE: 17 nM
  6-keto-PGF1α: 80^* nM
  7,8-DiHDPE: 1.7 nM
  7-HDHA: 2.7 nM
  8(9)-EpETrE: 15 nM
  8,9-DiHETrE: 1.6 nM
  8-HDHA: 16 nM
  8-HETE: 4.2 nM
  8-iPF2a: 3.2^‡ nM
  9(10)-EpODE: 8.2 nM
  9(10)-EpOME: 81 nM
  9(10)-Epoxystearic acid: 40 nM
  9,10,13-TriHOME: 7.4 nM
  9,10-DiHODE: 1.3 nM
  9,10-DiHOME: 22 nM
  9,10-Dihydroxystearic acid: 60 nM
  9,12,13-TriHOME: 45 nM
  9-HETE: 3.1 nM
  9-HODE: 350^* nM
  9-HOTrE: 3.9 nM
  9-oxo-ODE: 43 nM
  10(11)-EpDPE: 30 nM
  10,11-DiHDPE: 2.3 nM
  10-HDHA: 3.5 nM
  11(12)-EpETE: 1.5 nM
  11(12)-EpETrE: 35 nM
  11,12-DiHETrE: 2.6 nM
  11-HDHA: 4.9 nM
  11-HETE: 31^‡ nM
  12(13)-EpODE: 3.4 nM
  12(13)-EpOME: 59 nM
  12,13-DiHOME: 48 nM
  12-HEPE: 2.1 nM
  12-HETE: 24 nM
  13(14)-EpDPE: 24 nM
  13,14-DiHDPE: 3.2 nM
  13,14-dihydro-15-keto-PGF2α: 4.3^‡ nM
  13-HDHA: 11^‡ nM
  13-HODE: 270 nM
  13-HOTrE: 3.6 nM
  13-oxo-ODE: 6.1 nM
  14(15)-EpETE: 1.7 nM
  14(15)-EpETrE: 28 nM
  14,15-DiHETE: 0.62 nM
  14,15-DiHETrE: 7.1 nM
  14-HDHA: 12 nM
  15(16)-EpODE: 24 nM
  15(S)-HETrE: 7.4^‡ nM
  15,16-DiHODE: 20 nM
  15-HETE: 38^‡ nM
  15-oxo-ETE: 7.5 nM
  16(17)-EpDPE: 23 nM
  16,17-DiHDPE: 8.5 nM
  16-HDHA: 6.9 nM
  17(18)-EpETE: 2.5 nM
  17,18-DiHETE: 2.6^* nM
  17-HDHA: 17 nM
  18-HEPE: 1.3 nM
  19(20)-EpDPE: 43 nM
  19,20-DiHDPE: 68 nM
  20-HDHA: 19 nM
  20-HEPE: 5.3 nM
  EKODE: 45 nM
  PGD2: 20^† nM
  PGE1: 11^† nM
  PGE2: 210^‡ nM
  PGF1α: 6.2^† nM
  PGF2α: 70^‡ nM
  TXB2: 3.8^† nM
[5]; [8]
  5,6-DiHETE: < 0.25 nM
  5-iPF2α: < 1.0 nM
  8(9)-EpETE: < 1.0 nM
  12,13-DiHODE: < 2.0 nM
  13,14-dihydro-15-keto-PGE1: 0.6 nM
  20-HETE: < 2.7 nM
  PGD1: 0.72 nM
[5]; kidney tissue 24 h after LPS treatment, LPS +, mean, second listing of PGF2α (r9)
  PGF2α: 70 nM
[5]; [9]
  kidney 6-keto-PGF1α level: increased
  kidney 8-iPGF2α level: increased
  kidney 13,14-dihydro-15-keto-PGE1 level: increased
  kidney PGE2 level: increased
  kidney PGF2α level: increased
COX–2
  COX–2 expression and PGE2 production: reduced COX–2 expression and PGE2 production
Ovine recombinant COX–1 [6]
  IC50: 490 nM
  effect on COX–1 dependent PGE2 formation, cell-free enzyme assay: dose-dependently decreased; also recorded: inhibited
